These results are taken from US12528792B2, “Sulfonamide compounds and the use thereof in the treatment of cancer” (TROBIO THERAPEUTICS PTY LTD, priority 2019, dated 2026).

Holding throughout (type): cell-based
The test system of assay [1] is A2780 ovarian cancer cells. The experiment in a line: Drug combination screen, 6x6 dose matrix, Bliss-independence synergy. On the set-up: key to Max. Synergy, Vinorelbine: Bliss synergy score; 0 = no synergy, negative = antagonism; highest in matrix; key to Total Synergy, Vinorelbine: sum of Bliss synergy scores across the dose matrix. Conditions: 72 h (26*: 96-well plate format). How it is done: In vitro growth inhibition assays were performed as technical triplicate in two independent experiments and cell viability was assessed by Alamar Blue assay readout. Briefly, cells in logarithmic phase growth were seeded in 384-well plates in a 50 μL/well assay volume. Cells were seeded at 1,200 cells/well using a Multidrop 384 (Thermo Scientific) and allowed to adhere at 37° C. with 5% CO2, in a humidified atmosphere (LiCONIC incubator). After 24 hours incubation, test compounds, positive control (20 μM Thonzonium bromide, 100% kill) and vehicle only (0.4% DMSO) were added into wells of each assay plate using a Tecan HP D300 Digital Dispenser in technical triplicate under minimum light. Following 72 hours drug exposure, metabolic activity was detected by addition of 10% (v/v) Alamar Blue reagent to each assay well using a Multidrop Cambi (Thermo Scientific) and determined by measurement of fluorescence intensity (excitation 555 nm, emission 585 nm) using an EnSpire (Perkin Elmer) plate reader. Readings were performed at 0 hour (background) and after 6 hours alamar blue incubation at 37° C.
The two drugs in each combination matrix were dispensed using a Tecan HP D300 Digital Dispenser. Assays were performed in triplicate for each drug combination (test compound/vinorelbine and test compound/paclitaxel combinations). Synergistic drug interactions were calculated from the averaged cell viability data using the methodology described below.
Synergistic drug interactions were determined for each pa1rw1se drug combination by applying the Bliss-independence model that assumes independence of drug mechanisms. Prior to the analysis, percent cell viability (CV) for combination data were converted to fractional cell growth inhibition (GI) by the formula: […]
The Bliss additivism model was used to calculate a predicted combined response C to two single agents with responses A and B (using GI values), as follows:
The final score for any combination was reported as the difference between the value predicted by the additive model and the experimentally observed value, normalised to 100. Using GI values the maximum possible synergy score is 100, with 0 indicating no synergy and negative indicating possible antagonism. Scores were also reported as a “Max synergy” score, which is the highest individual synergy score for each combination matrix, and a “Total synergy” score, which was obtained by summation of each individual synergy score for the matrix.
The single agent IC50 values for the test compounds and their synergy scores in combination with vinorelbine and paclitaxel are presented in Table 4. The data is listed as IC50 mean from technical triplicates for two independent experiments. The averaged IC50 concentrations for the single agents from both runs were then used to generate the 6×6 dose matrices in the synergy experiment. Synergy scores for each drug combination were calculated by the Bliss-independence model. The maximum synergy and total synergy scores for each combination in A2780 cells are listed.

Assay [2] addresses T1, Tpm3.1-containing actin microfilaments in SK-N-SH neuroblastoma cells (Homo sapiens, UniProt P06753).
T1 construct: expressed in transfected cells; host or cells: SK-N-SH neuroblastoma cells
The experiment in a line: Imaging and quantitation of Tpm3.1 mCherry and 488-Atto-Phalloidin actin filaments. Conditions: 24 hours post-treatment, two concentrations, FIG. 2 and FIG. 3. How it is done: The ability of compounds 24, 26 and 143 to disrupt Tpm3.1-containing actin microfilaments was investigated in SK—N—SH neuroblastoma cells that express Tpm3.1 labelled with the mCherry fluorophore. Cells were seeded at 3×10^4 cells per well in a volume of 1000 μL complete media onto a 12 well plate containing 13 mm coverslips and left to plate down for 24 hours prior to treatment. Cells were then treated with DMSO and two concentrations of the test compounds. 24 hours post-treatment, cells were fixed with 16% paraformaldehyde (PBS) and stained with 488-Atto-Phalloidin to visualise the actin filament bundles. Single plane images were obtained using the Olympus IX83 epi-fluorescence microscope. Ten fields of view were collected for both Tpm3.1 mCherry fluorophore (FIG. 2) and 488-Atto-Phalloidin (FIG. 3) with each treatment condition.
Quantitation of either Tpm3.1 mCherry filaments or 488-Atto-Phalloidin filaments was performed using ImageJ 1.52p software (ImageJ, NIH). The mean pixel intensity from a cell was measured by using a line across the entire cell cytoplasmic area above or below the nuclear region. The line was made to cross the filament bundles at a 90° angle for the measurement rather than run along a single filament. A total of n=100 cells were measured from ten fields of view. […]

The subject of another assay is PC3 (prostate) cells. Kind of assay: Anti-proliferative activity, Cell-Titre luminescent viability assay. Conditions: 72 h exposure, Cell-Titre luminescent reagent. A digest of the protocol: (§1)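 Cells attached 24 h at 37° C., 5% CO2, then treated 72 h with compound at 0.3–100 μM or 0.1–30 μM. Viability read by Cell-Titre luminescence after 30 min reagent exposure, normalized to vehicle; EC50 from variable-slope sigmoidal nonlinear regression.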

Assay [3] has as its system MIA PaCa-2 (pancreatic) cells. The description is as above. Conditions: Homo sapiens, 72 h exposure, Cell-Titre luminescent reagent. A digest of the protocol:
as §1

Assay [4] concerns Caco-2 (colorectal) cells. The assay is described as above. The conditions noted are these: Homo sapiens, 72 h exposure, Cell-Titre luminescent reagent. A digest of the protocol:
as §1

For the next assay, the system named is A2780 (ovarian) cells. The assay is described as above. The conditions noted are these: Homo sapiens, 72 h exposure, Cell-Titre luminescent reagent. A digest of the protocol: as §1
Another assay deals with A549 (NSCLC) cells. The description is as above. The conditions noted are these: Homo sapiens, 72 h exposure, Cell-Titre luminescent reagent. A digest of the protocol: as §1

T1 sequence (P06753 1-248 isoform P06753-2): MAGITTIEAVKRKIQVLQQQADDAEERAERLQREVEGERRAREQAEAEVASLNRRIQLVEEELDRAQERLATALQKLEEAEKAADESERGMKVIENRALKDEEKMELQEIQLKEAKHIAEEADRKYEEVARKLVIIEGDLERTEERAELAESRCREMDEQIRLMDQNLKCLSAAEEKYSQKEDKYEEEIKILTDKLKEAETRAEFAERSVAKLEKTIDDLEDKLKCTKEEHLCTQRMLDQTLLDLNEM

As for `O=C(Nc1ccc(C(F)(F)F)cc1)c1ccn(S(=O)(=O)c2ccc3[nH]ccc3c2)c1` [Compound 26, 1-((1H-indol-5-yl)sulfonyl)-N-(4-(trifluoromethyl)phenyl)-1H-pyrrole-3-carboxamide], the “Max. Synergy, Paclitaxel” value in assay [1] (combination with paclitaxel, Bliss score) was found to be 7.83. For the same molecule, the “Total Synergy, Paclitaxel” value in assay [1] (combination with paclitaxel, sum of Bliss scores of the matrix) worked out at 61.23. Also, in assay [1] (combination with vinorelbine, Bliss score), the “Max. Synergy, Vinorelbine” value amounted to 10.86. The “Total Synergy, Vinorelbine” value in assay [1] (combination with vinorelbine, sum of Bliss scores of the matrix) came to 60.91. Further, the “Disruption of Tpm3.1-containing actin microfilaments” value in assay [2] is given as “disrupt Tpm3.1-containing actin microfilaments in a dose-dependent manner”. The IC50 with PC3 (prostate) cells came out at 7.7 µM; in assay [3] it was 10.1 µM; in assay [4] it was 6.1 µM; with A2780 (ovarian) cells, 4.9 µM; in the assay with A549 (NSCLC) cells, 6.8 µM.
